{
  "source": "patent US10398709B2",
  "about": "“Compositions for the treatment of cataracts” (Catacore, Inc., priority 2015, dated 2019)",
  "origin": "cited, not measured here",
  "key": {"[1]": {"system": "preformed protein aggregates (mutant crystallins)", "conditions": "both in vitro and in cell-transfection experiments"}, "[2]": {"system": "dissected rabbit cataractous lenses", "conditions": "dissected rabbit cataractous lenses in vitro"}, "cataract": {"system": "cataract", "conditions": "in vivo in dogs"}},
  "data": [
    {"compound": "CC(C)=CCC[C@@H](C)[C@H]1CC[C@@]2(C)C3=C(CC[C@]12C)[C@@]1(C)CC[C@H](O)C(C)(C)[C@@H]1CC3", "note": "[lanosterol, 3β-hydroxy-8,24-lanostadiene]", "values": [
      {"measurement": "preformed protein aggregates", "setting": "[1]", "value": "significantly decreased"},
      {"measurement": "cataract severity and transparency", "setting": "[2]", "value": "reduce cataract severity and increase transparency"},
      {"measurement": "cataract severity", "setting": "cataract", "value": "reduce cataract severity"}
    ]},
    {"compound": "CC(C)CCC[C@@H](C)[C@H]1CC[C@H]2[C@@H]3CC=C4C[C@@H](O)CC[C@]4(C)[C@H]3CC[C@]12C", "note": "[cholesterol]", "values": [
      {"measurement": "preformed protein aggregates", "setting": "[1]", "value": "not"}
    ]}
  ]
}
